Data: BindingDB's records for doi:10.1021/np970376z (Aoyama Gakuin University, 1998)

Molecular target: Prothrombin (Homo sapiens, UniProt P00734)
Test: Inhibition of thrombin

Compared with `CC1(C)CCC[C@H]2[C@H]1CC[C@@]1(C)[C@@H]2CC/C(=C\OS(=O)(=O)O)[C@@H]1CCc1ccoc1` [listing 1 of 2 here], `C/C(=C\Cc1cc(O)ccc1O)CCC[C@@H](C)[C@@H](C[C@@H]1CCC[C@H]2C(C)(C)CCC[C@@]12C)OS(=O)(=O)O` is higher in IC50: 47.7 µM for the first, > 136 µM for the second. The first is the more potent here.

`CC1(C)CCC[C@H]2[C@H]1CC[C@@]1(C)[C@@H]2CC/C(=C\OS(=O)(=O)O)[C@@H]1CCc1ccoc1` [listing 2 of 2 here] showed an IC50 of 42.7 µM.
